{"source": "paper PMC12396409", "about": "“Screening and hit evaluation of a microbial metabolite library against the pathogenic Plasmodium falciparum and Toxoplasma gondii parasites” (International Journal for Parasitology: Drugs and Drug …, 2025)", "key": {"[1]": {"test_system": "P. falciparum 3D7 parasites", "assay": "P. falciparum growth inhibition assay, 2-cycle (120 h treatment), delayed-death screen and dose-response", "format": "cell-based, Plasmodium falciparum", "conditions": "for activity at 2 µg/mL: Plasmodium falciparum, 3D7"}, "[2]": {"test_system": "P. falciparum 3D7 parasites", "assay": "P. falciparum growth inhibition assay, 1-cycle (72 h treatment), SYBR DNA staining (library screen at 2 μg/mL and dose-response)", "format": "cell-based, Plasmodium falciparum", "conditions": "for activity at 2 µg/mL: Plasmodium falciparum, 3D7"}, "[3]": {"test_system": "T. gondii RH strain (RH-Tub-eYFP) tachyzoites", "assay": "microbe, parasite or virus in culture", "format": "cell-based, Toxoplasma gondii", "conditions": "72 h; for percent parasite growth at 2 µg/mL: Toxoplasma gondii"}, "[4]": {"conditions": "P. falciparum, 120 h, parasite screen 2 μg/mL, % growth, replicate 1"}, "[5]": {"conditions": "P. falciparum, 120 h, parasite screen 2 μg/mL, % growth, replicate 2"}, "[6]": {"conditions": "P. falciparum, 72 h, parasite screen 2 μg/mL, % growth, replicate 1"}, "[7]": {"conditions": "P. falciparum, 72 h, parasite screen 2 μg/mL, % growth, replicate 2"}, "[8]": {"conditions": "T. gondii, parasite screen 2 μg/mL, % growth, replicate 1"}, "[9]": {"conditions": "T. gondii, parasite screen 2 μg/mL, % growth, replicate 2"}, "[10]": {"conditions": "P. falciparum, 120 h, screen at 2 μg/mL, replicate 1"}, "[11]": {"conditions": "P. falciparum, 120 h, screen at 2 μg/mL, replicate 2"}, "[12]": {"conditions": "P. falciparum, 72 h, screen at 2 μg/mL, replicate 1"}, "[13]": {"conditions": "P. falciparum, 72 h, screen at 2 μg/mL, replicate 2"}, "[14]": {"conditions": "T. gondii, screen at 2 μg/mL, replicate 1"}, "[15]": {"conditions": "T. gondii, screen at 2 μg/mL, replicate 2"}, "[16]": {"conditions": "library screen at 2 μg/mL, 120 h, % growth, replicate 1"}, "[17]": {"conditions": "library screen at 2 μg/mL, 120 h, % growth, replicate 2"}, "[18]": {"conditions": "library screen at 2 μg/mL, 72 h, % growth, replicate 1"}, "[19]": {"conditions": "library screen at 2 μg/mL, 72 h, % growth, replicate 2"}, "[20]": {"conditions": "library screen at 2 μg/mL, % growth, replicate 1"}, "[21]": {"conditions": "library screen at 2 μg/mL, % growth, replicate 2"}}, "note": "Read-outs that look alike come from different tables or passages of the source.", "data": [{"compound": "COC1C(O)CC(=O)OC(C)CC=CC=CC(O)C(C)CC(CC=O)C1OC1OC(C)C(OC2CC(C)(O)C(OC(=O)CC(C)C)C(C)O2)C(N(C)C)C1O", "note": "(stereo not drawn) [BIA-L1538]", "values": [{"measurement": "Pf_120h_%Growth_Rep1", "setting": "[1]; P. falciparum 3D7, 120 h, library screen at 2 μg/mL, % growth, replicate 1", "result": 5.60, "unit": "%"}, {"measurement": "Pf_120h_%Growth_Rep2", "setting": "[1]; P. falciparum 3D7, 120 h, library screen at 2 μg/mL, % growth, replicate 2", "result": 17.51, "unit": "%"}, {"measurement": "Pf_72h_%Growth_Rep1", "setting": "[2]; P. falciparum 3D7, 72 h, library screen at 2 μg/mL, % growth, replicate 1", "result": 49.92, "unit": "%"}, {"measurement": "Pf_72h_%Growth_Rep2", "setting": "[2]; P. falciparum 3D7, 72 h, library screen at 2 μg/mL, % growth, replicate 2", "result": 67.33, "unit": "%"}, {"measurement": "Tg_72h_%Growth_Rep1", "setting": "[3]; T. gondii RH, library screen at 2 μg/mL, % growth, replicate 1", "result": 16.93, "unit": "%"}, {"measurement": "Tg_72h_%Growth_Rep2", "setting": "[3]; T. gondii RH, library screen at 2 μg/mL, % growth, replicate 2", "result": 20.94, "unit": "%"}]}, {"compound": "CC1(C)CCCC2(C)c3cnncc3CCC12", "note": "(stereo not drawn) [Polygodial pyridazine]", "values": [{"measurement": "Pf_120h_%Growth_Rep1", "setting": "[1]; [4]", "result": 58.21, "unit": "%"}, {"measurement": "Pf_120h_%Growth_Rep2", "setting": "[1]; [5]", "result": 140.85, "unit": "%"}, {"measurement": "Pf_72h_%Growth_Rep1", "setting": "[2]; [6]", "result": 71.42, "unit": "%"}, {"measurement": "Pf_72h_%Growth_Rep2", "setting": "[2]; [7]", "result": 85.26, "unit": "%"}, {"measurement": "Tg_72h_%Growth_Rep1", "setting": "[3]; [8]", "result": 119.26, "unit": "%"}, {"measurement": "Tg_72h_%Growth_Rep2", "setting": "[3]; [9]", "result": 96.17, "unit": "%"}]}, {"compound": "Cc1cc(=O)c2c(o1)-c1c(cc(O)c(O)c1C(=O)O)OC2", "note": "[Citromycetin]", "values": [{"measurement": "Pf_120h_%Growth_Rep1", "setting": "[1]; [10]", "result": 103.91, "unit": "%"}, {"measurement": "Pf_120h_%Growth_Rep2", "setting": "[1]; [11]", "result": 96.05, "unit": "%"}, {"measurement": "Pf_72h_%Growth_Rep1", "setting": "[2]; [12]", "result": 89.81, "unit": "%"}, {"measurement": "Pf_72h_%Growth_Rep2", "setting": "[2]; [13]", "result": 87.50, "unit": "%"}, {"measurement": "Tg_72h_%Growth_Rep1", "setting": "[3]; [14]", "result": 134.75, "unit": "%"}, {"measurement": "Tg_72h_%Growth_Rep2", "setting": "[3]; [15]", "result": 97.97, "unit": "%"}]}, {"compound": "CO[C@H]1C[C@H](O[C@H]2[C@H](C)O[C@@H](O[C@@H]3/C(C)=C/C[C@@H]4C[C@@H](C[C@]5(C=C[C@H](C)[C@@H](C(C)C)O5)O4)OC(=O)[C@@H]4C=C(C)[C@@H](O)[C@H]5OC/C(=C\\C=C\\[C@@H]3C)[C@]54O)C[C@@H]2OC)O[C@@H](C)[C@@H]1O", "note": "[Avermectin B1b]", "values": [{"measurement": "Pf_120h_%Growth_Rep1", "setting": "[1]; [16]", "result": 7.97, "unit": "%"}, {"measurement": "Pf_120h_%Growth_Rep2", "setting": "[1]; [17]", "result": -7.80, "unit": "%"}, {"measurement": "Pf_72h_%Growth_Rep1", "setting": "[2]; [18]", "result": 8.18, "unit": "%"}, {"measurement": "Pf_72h_%Growth_Rep2", "setting": "[2]; [19]", "result": 3.73, "unit": "%"}, {"measurement": "Tg_72h_%Growth_Rep1", "setting": "[3]; [20]", "result": 74.43, "unit": "%"}, {"measurement": "Tg_72h_%Growth_Rep2", "setting": "[3]; [21]", "result": 75.78, "unit": "%"}]}, {"compound": "CCCCCCCCCCCCCCCc1cc(O)cc(O)c1", "note": "[Adipostatin A]", "values": [{"measurement": "Pf_120h_%Growth_Rep1", "setting": "[1]; [16]", "result": 83.04, "unit": "%"}, {"measurement": "Pf_120h_%Growth_Rep2", "setting": "[1]; [17]", "result": 100.82, "unit": "%"}, {"measurement": "Pf_72h_%Growth_Rep1", "setting": "[2]; [18]", "result": 85.82, "unit": "%"}, {"measurement": "Pf_72h_%Growth_Rep2", "setting": "[2]; [19]", "result": 88.98, "unit": "%"}, {"measurement": "Tg_72h_%Growth_Rep1", "setting": "[3]; [20]", "result": 103.30, "unit": "%"}, {"measurement": "Tg_72h_%Growth_Rep2", "setting": "[3]; [21]", "result": 96.65, "unit": "%"}]}, {"compound": "CC(=O)C1C(C)=CC(=O)c2c1c(-c1c3c(c(O)c4c(O)cccc14)C(=O)CC(C)(O)C3C(C)=O)c1cccc(O)c1c2O", "note": "(stereo not drawn) [Setomimycin]", "values": [{"measurement": "Pf_120h_%Growth_Rep1", "setting": "[1]; [4]", "result": 7.52, "unit": "%"}, {"measurement": "Pf_120h_%Growth_Rep2", "setting": "[1]; [5]", "result": 6.30, "unit": "%"}, {"measurement": "Pf_72h_%Growth_Rep1", "setting": "[2]; [6]", "result": 8.25, "unit": "%"}, {"measurement": "Pf_72h_%Growth_Rep2", "setting": "[2]; [7]", "result": 3.46, "unit": "%"}, {"measurement": "Tg_72h_%Growth_Rep1", "setting": "[3]; [8]", "result": 70.47, "unit": "%"}, {"measurement": "Tg_72h_%Growth_Rep2", "setting": "[3]; [9]", "result": 40.70, "unit": "%"}]}, {"compound": "CC1(C)CCC[C@]2(C)[C@@H](C=O)C(C=O)=CC[C@@H]12", "note": "[Polygodial]", "values": [{"measurement": "activity at 2 µg/mL", "setting": "[1]; P. falciparum, 120 h, parasite screen 2 μg/mL, % growth, replicate 1, read-out: Pf_120h_%Growth_Rep1", "result": 6.02, "unit": "%"}, {"measurement": "activity at 2 µg/mL", "setting": "[1]; P. falciparum, 120 h, parasite screen 2 μg/mL, % growth, replicate 2, read-out: Pf_120h_%Growth_Rep2", "result": 28.5, "unit": "%"}, {"measurement": "activity at 2 µg/mL", "setting": "[2]; P. falciparum, 72 h, parasite screen 2 μg/mL, % growth, replicate 1, read-out: Pf_72h_%Growth_Rep1", "result": 1.12, "unit": "%"}, {"measurement": "activity at 2 µg/mL", "setting": "[2]; P. falciparum, 72 h, parasite screen 2 μg/mL, % growth, replicate 2, read-out: Pf_72h_%Growth_Rep2", "result": -3.71, "unit": "%"}, {"measurement": "percent parasite growth at 2 µg/mL", "setting": "[3]; T. gondii, parasite screen 2 μg/mL, % growth, replicate 1, read-out: Tg_72h_%Growth_Rep1", "result": 101, "unit": "%"}, {"measurement": "percent parasite growth at 2 µg/mL", "setting": "[3]; T. gondii, parasite screen 2 μg/mL, % growth, replicate 2, read-out: Tg_72h_%Growth_Rep2", "result": 101, "unit": "%"}]}, {"compound": "CC[C@H]1OC(=O)[C@H](C)[C@@H](O[C@H]2C[C@@](C)(OC)[C@@H](O)[C@H](C)O2)[C@H](C)[C@@H](O[C@@H]2O[C@H](C)C[C@H](N(C)C)[C@H]2O)[C@](C)(O)C[C@@H](C)C(=O)[C@H](C)[C@H]2OC(=O)O[C@@]21C", "note": "[Davercin, reference compound]", "values": [{"measurement": "2) Growth (%) at 120 h", "setting": "[1]; P. falciparum, 2 μg/mL, 120 h", "result": 13.05, "unit": "%"}, {"measurement": "Pf_120h_%Growth_Rep1", "setting": "[1]; [10]", "result": 17.41, "unit": "%"}, {"measurement": "Pf_120h_%Growth_Rep2", "setting": "[1]; [11]", "result": 8.68, "unit": "%"}, {"measurement": "3) Fold change (72 h/120 h)", "setting": "[1]; P. falciparum, growth at 72 h / growth at 120 h, 2 μg/mL", "result": 4.8}, {"measurement": "1) Growth (%) at 72 h", "setting": "[2]; P. falciparum, 2 μg/mL, 72 h", "result": 62.94, "unit": "%"}, {"measurement": "Pf_72h_%Growth_Rep1", "setting": "[2]; [12]", "result": 70.33, "unit": "%"}, {"measurement": "Pf_72h_%Growth_Rep2", "setting": "[2]; [13]", "result": 55.54, "unit": "%"}, {"measurement": "Tg_72h_%Growth_Rep1", "setting": "[3]; [14]", "result": 45.64, "unit": "%"}, {"measurement": "Tg_72h_%Growth_Rep2", "setting": "[3]; [15]", "result": 28.61, "unit": "%"}]}, {"compound": "Telomycin", "values": [{"measurement": "Pf_120h_%Growth_Rep1", "setting": "[1]; [10]", "result": 103.58, "unit": "%"}, {"measurement": "Pf_120h_%Growth_Rep2", "setting": "[1]; [11]", "result": 79.40, "unit": "%"}, {"measurement": "Pf_72h_%Growth_Rep1", "setting": "[2]; [12]", "result": 87.11, "unit": "%"}, {"measurement": "Pf_72h_%Growth_Rep2", "setting": "[2]; [13]", "result": 125.88, "unit": "%"}, {"measurement": "Tg_72h_%Growth_Rep1", "setting": "[3]; [14]", "result": 151.31, "unit": "%"}, {"measurement": "Tg_72h_%Growth_Rep2", "setting": "[3]; [15]", "result": 89.83, "unit": "%"}]}, {"compound": "C=C(C)[C@H](C)CC[C@](C)(O)[C@H]1CC[C@]2(C)[C@@H]1CC[C@@H]1[C@@]3(C)CC[C@H](O)C(C)(C)[C@@H]3CC[C@]12C", "note": "[Carnaubadiol]", "values": [{"measurement": "Pf_120h_%Growth_Rep1", "setting": "[1]; [10]", "result": 92.23, "unit": "%"}, {"measurement": "Pf_120h_%Growth_Rep2", "setting": "[1]; [11]", "result": 87.62, "unit": "%"}, {"measurement": "Pf_72h_%Growth_Rep1", "setting": "[2]; [12]", "result": 84.27, "unit": "%"}, {"measurement": "Pf_72h_%Growth_Rep2", "setting": "[2]; [13]", "result": 81.18, "unit": "%"}, {"measurement": "Tg_72h_%Growth_Rep1", "setting": "[3]; [14]", "result": 149.01, "unit": "%"}, {"measurement": "Tg_72h_%Growth_Rep2", "setting": "[3]; [15]", "result": 97.97, "unit": "%"}]}]}
